US8575375B2, “Androstane and pregnane steroids with potent allosteric GABA receptor chloride ionophore modulating properties” (Research Triangle Institute, priority 2007, dated 2013)

Key:
GABAA receptor [1] = assay: [3H]Flunitrazepam binding assay (enhancement) in rat brain cerebral cortex homogenates; settings: for [3H]Flunitrazepam Emax: percentage of Emax determined for allopregnanolone; for EC50: rat cortical membranes, 1.0 μM GABA, 1.0 nM [3H]flunitrazepam, mean±SD
Protocol: (§1) Tissue preparation. Rat brain cerebral cortex homogenates and the binding assays were conducted essentially as described (Carter et al., 1997). Briefly, adult male Sprague-Dawley rats (Charles River Laboratories, Raleigh, N.C.) were killed by excess CO2 asphyxiation, decapitated, and their brain rapidly removed and frozen on dry ice before being stored −76° C. The frozen cortices were placed in 10 volumes of an ice-cold 0.32 M sucrose solution and homogenized with a Teflon-glass homogenizer. The homogenate was centrifuged at 1500×g (10 min at 4° C.). The supernatant was retained and centrifuged at 10,000×g (20 min at 4° C.), yielding the P2 pellet. The P2 pellet was resuspended in an equal volume of a 50 mM Na+/K+ phosphate buffer containing 200 mM NaCl (pH 7.4) and centrifuged at 10,000×g (10 min at 4° C.). The pellet was washed twice more, resuspended in 1/10 volume of buffer and stored at −76° C. until the time of assay.
[^3H]Flunitrazepam binding assay. This assay was conducted as described for the [^35S]TBPS assay except that the assays contained 20 μg tissue homogenate, 1.0 μM GABA and 1.0 nM [^3H]flunitrazepam (74.1-85 Ci/mmol). Clonazepam (1.0 μM) was used to determine nonspecific binding.

GABAA receptor [2] = assay: [35S]TBPS binding assay in rat brain cerebral cortex homogenates; settings: rat cortical membranes, 6.25 μM GABA, 2 nM [35S]TBPS; mean±SD
Protocol: as §1
[^35S]TBPS binding assays. These assays were carried out in 1.4 mL polypropylene tubes (Matrix Technologies, Hudson, N.H.). In a final volume of 0.5 mL, each tube contained 100 μL cortical membrane suspension (40 μg of protein, added last) 2 nM [^35S]TBPS (64-165 Ci/mmol), 6.25 μM GABA and one of six different concentrations of test compound added as 5 μL in 100% DMSO (1% final DMSO concentration). The test compounds were added to the assay tubes using a BiomekFX automated liquid handler with 96-well head (Beckman-Coulter, Fullerton, Calif.). Nonspecific binding was determined in the presence of 200 μM picrotoxin. The assays were incubated for 2 h at RT before being terminated by vacuum filtration through 96-well GF/B glass filter plates using a 96-well harvester (Brandel Scientific, Gaithersburg, Md.). Prior to harvesting, the filter plates were pre-soaked for 20 min in buffer containing 0.15% BSA and 0.1% PEI. The radioactivity remaining on the filter was determined in a TopCount 12-detector scintillation counter (Packard Instruments, Meriden, Conn.) using 20 μl of MicroScint20 (Packard Instruments) per well and standard liquid scintillation counting techniques.

[3] = test system: pentylenetetrazole (PTZ) induced seizures; assay: PTZ seizure test; format: in vivo; settings: FIG. 3; mice
Protocol: (§2) Male NIH Swiss mice (25-30 g) were housed two per cage. Animals were kept in a vivarium (temperature 22-26° C.; humidity 40-50%) with an artificial 12-h light/dark cycle and free access to food and water. Animals were allowed to acclimate to the vivarium for at least 5 days. The experiments were performed during the light phase of the light/dark cycle (between 9:30 AM and 3:30 PM), after at least a 30-min period of acclimation to the experimental room. Animals were maintained in facilities fully accredited by the Association for Assessment and Accreditation of Laboratory Animal Care, and experiments were performed under protocols approved by the Animal Care and Use Committee of the National Institute of Neurological Disorders and Stroke in strict compliance with the Guide for the Care and Use of Laboratory Animals of the National Research Council (National Academy Press, Washington, D.C.
(§3) Solutions of the steroids were made fresh daily in 40% hydroxypropyl-β-cyclodextrin in sterile 0.9% saline. Further dilutions were made using sterile saline. The steroids were injected intraperitoneally. The convulsant agent pentylenetetrazol (PTZ; Sigma-Aldrich) was dissolved in saline immediately before use. […]
The PTZ seizure test was carried out as described (Kokate et al., 1994). […] Mice failing to show clonic seizures lasting longer than 5 s were scored as protected. […]

[4] = test system: electrically (6 Hz) induced seizures; assay: 6-Hz seizure test; format: in vivo; settings: FIG. 3; mice
Protocol: as §2
as §3, with “use. All drug solutions were administered in a volume equaling 0.01 mL/g of the animal's body weight.” for “use.”

[5] = test system: elevated zero maze behaviour; assay: Elevated zero maze test of anxiolytic activity; format: in vivo; settings: therapeutic doses, mice
Protocol: as §2, with “D.C. […]” for “D.C.”
Anxiolytic activity was assessed with the elevated zero-maze as described (Kaminski et al., 2006). […] Five-min test sessions were video-recorded with a tripod-mounted camcorder. Percent time in open areas and number of entries into open areas were scored from the taped records using Observer 3.0 software (Noldus, Wageningen, The Netherlands). […] Dose-response data were analyzed by one-way analysis of variance. […]

Q: For `CN(C)c1ccc([C@H]2C[C@@]3(C)C(CC[C@@H]3[N+](=O)[O-])C3CC[C@H]4C[C@](C)(O)CCC4C32)cc1` (stereo partly drawn) [Compound C-8, 11β-[4-(N,N-Dimethylamino)phenyl]-3α-hydroxy-3β-methyl-5α-17β-nitro-estrane], which “[3H]Flunitrazepam Emax” value (GABAA receptor [1]) is on record?
A: 135%

Q: And the EC50 (GABAA receptor [1])?
A: 39.5 ± 20.6 nM

Q: What about the IC50 (GABAA receptor [2]) of the same compound?
A: 9.79 ± 1.93 nM

Q: Which “[3H]Flunitrazepam Emax” value (GABAA receptor [1]) does the source give for `C[C@@]1(O)CC[C@@]2(C)[C@@H](CC[C@@H]3[C@@H]2CC[C@]2(C)[C@@H]([N+](=O)[O-])CC[C@@H]32)C1` [Compound A2-B, 3α-Hydroxy-3β-methyl-17β-nitro-5α-androstane] here?
A: 99.1%

Q: And the EC50 (GABAA receptor [1])?
A: 33.5 ± 4.9 nM

Q: And the IC50 (GABAA receptor [2])?
A: 17.9 ± 6.19 nM

Q: And the melting point?
A: 211 to 213 °C

Q: For `CN(C)c1ccc([C@H]2C[C@]3(C)[C@@H](O)CC[C@H]3[C@@H]3CC[C@H]4C[C@](C)(O)CC[C@@H]4[C@H]32)cc1.Cl`, which melting point is on record?
A: 230 to 232 °C (dec.)

Q: What does the source list for `C[C@]12CC[C@@H](O)C[C@@H]1CC[C@@H]1[C@@H]2CC[C@]2(C)[C@@H]([N+](=O)[O-])CC[C@@H]12` [Compound A2-A, 17β-Nitro-5α-androstan-3α-ol]?
A: [3H]Flunitrazepam Emax (GABAA receptor [1]): 103%; EC50 (GABAA receptor [1]): 24 ± 2.5 nM; IC50 (GABAA receptor [2]): 13 ± 0.13 nM; reduction of chemically (PTZ) induced seizures [3]: reduce; reduction of electrically (6 Hz) induced seizures [4]: reduce; percentage of time spent in open arms of the maze ([5]; FIG. 1A): significantly enhanced; number of entries (open arms) ([5]; FIG. 1B): significantly enhanced

Q: Which “[3H]Flunitrazepam Emax” value (GABAA receptor [1]) does the source give for `CS[C@H]1CCC2C3CC[C@H]4C[C@H](O)CC[C@]4(C)C3CC[C@@]21C` (stereo partly drawn) [Compound B-5, 3α-Hydroxy-17β-thiomethyl-5α-androstane] here?
A: 131.7%

Q: What about the EC50 (GABAA receptor [1]) of the same compound?
A: 75.9 ± 12.4 nM

Q: And the IC50 (GABAA receptor [2])?
A: 32 ± 5.19 nM

Q: What about the melting point of the same compound?
A: 151 to 153 °C
